Counter-ions that a name gives are not always drawn.
Columns and labels:
[1] = target: proton.potassium-adenosine triphosphatase (H+.K+-ATPase) (Sus scrofa, UniProt P19156); test: Proton.potassium-adenosine triphosphatase (H+.K+-ATPase) inhibition test; type: biochemical; conditions: microsomal fraction of porcine gastric mucosa, pH=6.85, 37° C.; result given in words only
Experimental: Proton.potassium-adenosine triphosphatase (H^+.K^+ -ATPase) activation test
According to the method reported by Sachs et al. [J. Biol. Chem., 251, 7690 (1976)], a microsomal fraction obtained from homogenized fresh porcine gastric mucosa by density gradient ultracentrifugation was used as the proton.potassium-adenosine triphosphatase preparation, 10 μl of a solution of a test compound in dimethylsulfoxide were added to 0.75 ml of 70 mM tris-HCl buffer solution (magnesium chloride 5 mM, potassium chloride 20 mM and pH=6.85) containing from 30 to 80 μg/ml (in terms of protein concentration) of the enzyme preparation and the mixture was incubated for 45 minutes at 37° C. with shaking at 200 times per minute. The enzyme reaction was initiated by adding 0.25 ml of 8 mM disodium adenosine triphosphate solution. After 20 minutes of the reaction time, the reaction was stopped by adding 1 ml of a 10k trichloroacetic acid-active carbon (100 mg) solution. The reaction solution was centrifuged (4° C., 3000 rpm, 15 minutes) and the inorganic phosphate in the supernatant prepared from adenosine triphosphate by hydrolysis was measured by colorimetry, according to the method of Yoda and Hokin [Biochem. Biophys. Res. Commun., 40, 880 (1970)]. In a similar manner, the amount of inorganic phosphate was measured in a reaction solution in the absence of potassium chloride. From the difference between the phosphate amounts in the presence and absence of potassium chloride, the proton-potassium-adenosine triphosphatase activity was calculated. Based on the activity value in the control and the values in the test compound at the various concentrations tested, the inhibiting rates (%) and then the 50? inhibiting concentrations (IC50) to proton.potassium-adenosine triphosphatase activity were obtained.

[2] = tested on: Helicobacter pylori strains 9470, 9472 and 9474; test: Antibacterial activity against Helicobacter pylori; type: cell-based; conditions: strains 9470, 9472 and 9474, 37° C., 3 days, slightly aerobic; result given in words only
Experimental: Antibacterial activity against Helicobacter pylori The antibacterial activity of the compounds of the present invention were evaluated by measuring the minimum inhibitory concentration values (MIC) of the present compounds against Helicobacter pylori strains 9470, 9472 and 9474. These strains of Helicobacter pylori were incubated for 4 days on a plate medium. The medium was prepared by dissolving brain heart infusion agar (Product of DIFCO) in a defined amount of distilled water, by sterilization in an autoclave, injecting horse blood (Product of Nihon Seibutsu Zairyo Co.) into each plate for the medium to contain 7% of the blood and by solidifying. Under slightly aerobic conditions, Helicobacter pylori cultivated at 37° C. for 4 days was suspended in a physiological saline solution for its inocular size to be about 10^8 CFU/ml. The suspension was diluted 100 times, and about 10 μl of the diluted suspension was inoculated on a medium for MIC determination. The medium for MIC determination used had the same compounds as those for preculture. […] In a similar way to the preculture, Helicobacter pylori was cultivated at 37° C. for 3 days under slightly aerobic conditions. […] The minimum concentration which gave no bacterial growth was regarded as MIC of the compound of the present invention.

gastric acid secretion = test: Gastric acid secretion activity test using pyloric ligation in rats (Shay rat method); type: in vivo; conditions: male SD rats, 20 mg/kg injected into the duodenal region, 4 hours, result given in words only
Experimental: Gastric acid secretion activity test using pyloric ligation in rats (Shay rat method)
Pyloric ligation was conducted based on the method of Shay et al. [Gastroenterology, 5, 43 (1945)]. Male rats of SD strain were fasted for 24 hours; their abdomens were sectioned during anesthesia under ether. The duodenal and pyloric regions were exposed and the latter was ligated. A solution of a test compound (10 mg/ml) prepared by use of 1.5w parts of dimethylacetamide, 68.5% parts of polyethyleneglycol (PEG-400) and 30% parts of physiological saline solution, was injected into the duodenal region for the dose to be 20 mg/kg by use of a 1-ml syringe and an injection needle (26G). After injection of the test compound, the abdominal region was sutured. The animals were allowed to a stand for 4 hours without feeding food and water and then sacrified with carbon dioxide gas. The stomach was excised and gastric juice was gathered. The gastric juice sample was centrifuged (4° C., 2500 rpm, 15 minutes). The amount of the supernatant was measured to be as the gastric secretion. The acidity of the gastric juice was determined by the amount (ml) of 0.01 N sodium hydroxide solution required for titration of 0.1 ml of the supernatant to pH 7.0 by use of-an auto-titrating apparatus. The value of gastric acid secretion was calculated from the value of gastric secretion and the acidity of gastric juice. The inhibiting rate was obtained from the values of gastric acid secretion of the control group and of the administered group.

proton.potassium-adenosine triphosphatase (H+.K+-ATPase), sequence (P19156 whole entry): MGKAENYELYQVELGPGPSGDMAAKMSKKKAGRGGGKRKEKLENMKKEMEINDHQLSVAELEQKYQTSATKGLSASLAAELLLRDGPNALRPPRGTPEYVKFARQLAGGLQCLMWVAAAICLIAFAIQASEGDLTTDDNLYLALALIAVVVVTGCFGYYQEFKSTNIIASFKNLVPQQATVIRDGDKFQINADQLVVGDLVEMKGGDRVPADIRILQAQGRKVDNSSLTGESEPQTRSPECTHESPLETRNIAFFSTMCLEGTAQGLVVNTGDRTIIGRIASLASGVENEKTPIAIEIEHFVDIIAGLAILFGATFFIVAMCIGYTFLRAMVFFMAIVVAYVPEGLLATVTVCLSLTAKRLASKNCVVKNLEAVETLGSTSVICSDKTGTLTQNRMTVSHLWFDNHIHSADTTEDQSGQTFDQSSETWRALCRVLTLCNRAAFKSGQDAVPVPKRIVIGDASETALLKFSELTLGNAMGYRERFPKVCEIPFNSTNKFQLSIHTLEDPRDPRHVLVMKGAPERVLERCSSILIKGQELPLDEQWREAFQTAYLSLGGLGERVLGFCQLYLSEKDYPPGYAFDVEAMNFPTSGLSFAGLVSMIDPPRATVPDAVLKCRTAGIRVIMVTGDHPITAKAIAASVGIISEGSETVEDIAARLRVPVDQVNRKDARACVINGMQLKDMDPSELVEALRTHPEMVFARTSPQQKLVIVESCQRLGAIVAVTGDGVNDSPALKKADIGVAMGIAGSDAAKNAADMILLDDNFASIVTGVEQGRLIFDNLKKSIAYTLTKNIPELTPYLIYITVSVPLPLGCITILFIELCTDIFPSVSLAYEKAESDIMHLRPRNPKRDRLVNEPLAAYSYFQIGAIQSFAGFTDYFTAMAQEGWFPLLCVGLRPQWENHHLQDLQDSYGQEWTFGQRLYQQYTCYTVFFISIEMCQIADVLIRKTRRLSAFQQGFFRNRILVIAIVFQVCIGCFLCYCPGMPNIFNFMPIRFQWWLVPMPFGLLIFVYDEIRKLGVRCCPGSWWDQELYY
proton.potassium-adenosine triphosphatase (H+.K+-ATPase), sequence (P18434 whole entry partner): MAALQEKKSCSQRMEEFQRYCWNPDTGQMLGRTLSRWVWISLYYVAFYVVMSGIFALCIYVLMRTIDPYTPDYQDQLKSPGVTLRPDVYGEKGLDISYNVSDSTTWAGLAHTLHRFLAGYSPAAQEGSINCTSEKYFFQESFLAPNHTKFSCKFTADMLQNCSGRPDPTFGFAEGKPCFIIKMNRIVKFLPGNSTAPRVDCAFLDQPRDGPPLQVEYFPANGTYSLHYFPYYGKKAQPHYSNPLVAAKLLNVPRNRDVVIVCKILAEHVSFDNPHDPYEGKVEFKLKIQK

Structure (SMILES) | inhibiting concentrations (IC50) to proton.potassium-adenosine triphosphatase activity [1] | minimum inhibitory concentration (MIC) against Helicobacter pylori [2] | inhibiting rate of gastric acid secretion (gastric acid secretion)
CC=CCn1c(C)c(C)c2c[n+]([O-])nc(OCc3ccc(F)cc3)c21 [Example 75, 1-(2-Butenyl)-7-(4-fluorobenzyloxy)-2,3-dimethylpyrrolo[2,3-d]pyridazine-5-oxide] | excellent activity | excellent antibacterial activity | 
Cc1c(C)n(CC2CC2)c2c(OCc3ccc(F)cc3)nncc12 [Example 35, 1-Cyclopropylmethyl-7-(4-fluorobenzyloxy)-2,3-dimethylpyrrolo[2,3-d]pyridazine] | excellent activity |  | excellent activity
C=CCn1c(C)c(C)c2cnnc(OCc3ccc(F)cc3)c21 [Example 7, 7-(4-Fluorobenzyloxy)-2,3-dimethyl-1-(2-propenyl)pyrrolo[2,3-d]pyridazine] | excellent activity | excellent antibacterial activity | excellent activity
Cc1c(C)n(C[C@@H]2C[C@H]2C)c2c(OCc3ccc(F)cc3F)nncc12 (relative stereo) [Example 58, 7-(2,4-Difluorobenzyloxy)-2,3-dimethyl-1-(2-methylcyclopropylmethyl)pyrrolo[2,3-d]pyridazine] | excellent activity | excellent antibacterial activity | excellent activity
CC=CCn1c(C)c(C)c2cnnc(OCc3ccc(F)cc3)c21 [Example 1, 1-(2-Butenyl)-7-(4-fluorobenzyloxy)-2,3-dimethylpyrrolo[2,3-d]pyridazine] | excellent activity | excellent antibacterial activity | excellent activity
C=C(C)Cn1c(C)c(C)c2cnnc(OCc3ccccc3)c21 [Example 14, 7-Benzyloxy-2,3-dimethyl-1-(2-methyl-2-propenyl)-ovrrolo[2,3-d]pyridazine] |  | excellent antibacterial activity | excellent activity
CC=CCn1c(C)c(C)c2c[n+]([O-])nc(OCc3ccc(F)cc3F)c21 [Example 76, 1-(2-Butenyl)--7-(2,4-difluorobenzyloxy)-2,3-dimethylpyrrolo[2,3-d]pyridazine-5-oxide] | excellent activity | excellent antibacterial activity | 
C=CCn1c(C)c(C)c2cnnc(OCc3ccccc3)c21 [Example 3, 7-Benzyloxy-2,3-dimethyl-1-(2-propenyl)pyrrolo[2,3-d]pyridazine] |  | excellent antibacterial activity | excellent activity
Cc1c(C)n(C[C@@H]2C[C@H]2C)c2c(OCc3ccc(F)cc3)nncc12 (relative stereo) [Example 57, 7-(4-Fluorobenzyloxy)-2,3-dimethyl-1-(2-methylcyclopropylmethyl)pyrrolo[2,3-d]pyridazine] | excellent activity | excellent antibacterial activity | excellent activity
CC=CCn1c(C)c(C)c2cnnc(OCc3ccc(Cl)cc3Cl)c21 [Example 21, 1-(2-Butenyl)-7-(2,4-dichlorobenzyloxy)-2,3-dimethylpyrrolo[2,3-d]pyridazine] | excellent activity | excellent antibacterial activity | 
CC/C=C/Cn1c(C)c(C)c2cnnc(OCc3ccccc3)c21 [Example 11, 7-Benzyloxy-2,3-dimethyl-1-(2-pentenyl)pyrrolo[2,3-d]pyridazine] |  | excellent antibacterial activity | excellent activity

The next lines start with results.

inhibiting concentrations (IC50) to proton.potassium-adenosine triphosphatase activity [1] | minimum inhibitory concentration (MIC) against Helicobacter pylori [2] | Structure (SMILES) | inhibiting rate of gastric acid secretion (gastric acid secretion)
excellent activity | excellent antibacterial activity | Cc1c(C)n(CC2CC2)c2c(OCc3ccccc3)nncc12 [Example 4, 7-Benzyloxy-1-cyclopropylmethyl-2,3-dimethylpyrrolo[2,3-d]pyridazine] | 
excellent activity | excellent antibacterial activity | C=CCn1c(C)c(C)c2cnnc(OCc3ccc(Cl)cc3Cl)c21 [Example 17, 7-(2,4-Dichlorobenzyloxy)-2,3-dimethyl-1-(2-propenyl)pyrrolo[2,3-d]pyridazine] | excellent activity
excellent activity |  | C/C=C/Cn1c(C)c(C)c2cnnc(OCc3ccc(F)cc3)c21 [Example 74, 1-(2-Butenyl)-7-(4-fluorobenzyloxy)-2,3-dimethylpyrrolo[2,3-d]pyridazine hydrochloride] | 
excellent activity | excellent antibacterial activity | C=CCn1c(C)c(C)c2cnnc(OCc3ccc(F)cc3F)c21 [Example 9, 7-(2,4-Difluorobenzyloxy)-2,3-dimethyl-1-(2-propenyl)pyrrolo[2,3-d]pyridazine] | excellent activity
excellent activity | excellent antibacterial activity | CC=CCn1c(C)c(C)c2cnnc(OCc3ccc(F)cc3F)c21 [Example 22, 1-(2-Butenyl)-7-(2,4-difluorobenzyloxy)-2,3-dimethylpyrrolo[2,3-d]pyridazine] | excellent activity
 | excellent antibacterial activity | C=CCn1c(C)c(C)c2cnnc(OCc3ccc(Cl)cc3)c21 [Example 12, 7-(4-Chlorobenzyloxy)-2,3-dimethyl-1-(2-propenyl)povrrolo[2,3-d]pyridazine] | excellent activity
excellent activity | excellent antibacterial activity | CC=CCn1c(C)c(C)c2cnnc(OCc3ccc(Cl)cc3F)c21 [Example 48, 1-(2-Butenyl)-7-(4-chloro-2-fluorobenzyloxy)-2,3-dimethylpyrrolo[2,3-d]pyridazine] | excellent activity
excellent activity | excellent antibacterial activity | CC=CCn1c(C)c(C)c2cnnc(OCc3c(Cl)cccc3Cl)c21 [Example 49, 1-(2-Butenyl)-7-(2,6-dichlorobenzyloxy)-2,3-dimethylpyrrolo[2,3-d]pyridazine] | 
